Assay results published in ChEMBL document CHEMBL5154728, “Design and synthesis of novel quinazolinone derivatives as anti-HBV agents with TLR8 agonist effect” (Eur J Med Chem, 2022).

Tests used:
[1] = Cytotoxicity against human HepG2 2.2.15 cells infected with Hepatitis B virus assessed as reduction in cell growth by CCK8 assay; type: toxicity, cell-based
[2] = Antiviral activity against Hepatitis B virus infected in human HepG2 2.2.15 cells assessed as inhibition of DNA replication; type: functional, cell-based
[3] = Selectivity index, ratio of CC50 for human HepG2.2.2.15 cells to IC50 for Hepatitis B virus infected in human HepG2.2.2.15 cells; type: toxicity, cell-based; conditions: read-out: Selectivity Index
[4] = Selectivity index, ratio of CC50 for human HepG2.2.2.15 cells to IC50 for lamivudine/entecavir-resistant Hepatitis B virus infected in human HepG2 A64 cells; type: toxicity, cell-based; conditions: HepG2.2.2.15 cells (CC50), read-out: Selectivity Index
Hepatitis B virus [5] = experiment: Antiviral activity against lamivudine/entecavir-resistant Hepatitis B virus infected in human HepG2 A64 cells assessed as inhibition of DNA replication at 1 uM incubated for 72 hrs by RT PCR analysis; type: functional, organism-based; conditions: for IC50: HepG2.A64, 72 h; for inhibition at 1 µM: HepG2.A64, dose 1 µM, time 72 hrs
[6] = Antiviral activity against lamivudine/entecavir- resistant Hepatitis B virus infected in human HepG2 A64 cells assessed as inhibition of DNA replication; type: functional, cell-based
Hepatitis B virus [7] = experiment: Antiviral activity against wild type Hepatitis B virus infected in human HepG2.2.2.15 cells assessed as inhibition of DNA replication at 1 uM incubated for 72 hrs by RT PCR analysis; type: functional
[8] = target: T1, Toll-like receptor 8 (Homo sapiens) (UniProt Q9NR97); experiment: Agonist activity at human TLR8 expressed in HEK293T cells co-transfected with NFKappaB luciferase and renilla plasmids assessed as NF-kappaB activation measured after 48 hrs by dual-luciferase reporter gene assay; type: cell-based; conditions: filed as agonist, DDE = dose-dependent effect
T1 sequence (whole entry): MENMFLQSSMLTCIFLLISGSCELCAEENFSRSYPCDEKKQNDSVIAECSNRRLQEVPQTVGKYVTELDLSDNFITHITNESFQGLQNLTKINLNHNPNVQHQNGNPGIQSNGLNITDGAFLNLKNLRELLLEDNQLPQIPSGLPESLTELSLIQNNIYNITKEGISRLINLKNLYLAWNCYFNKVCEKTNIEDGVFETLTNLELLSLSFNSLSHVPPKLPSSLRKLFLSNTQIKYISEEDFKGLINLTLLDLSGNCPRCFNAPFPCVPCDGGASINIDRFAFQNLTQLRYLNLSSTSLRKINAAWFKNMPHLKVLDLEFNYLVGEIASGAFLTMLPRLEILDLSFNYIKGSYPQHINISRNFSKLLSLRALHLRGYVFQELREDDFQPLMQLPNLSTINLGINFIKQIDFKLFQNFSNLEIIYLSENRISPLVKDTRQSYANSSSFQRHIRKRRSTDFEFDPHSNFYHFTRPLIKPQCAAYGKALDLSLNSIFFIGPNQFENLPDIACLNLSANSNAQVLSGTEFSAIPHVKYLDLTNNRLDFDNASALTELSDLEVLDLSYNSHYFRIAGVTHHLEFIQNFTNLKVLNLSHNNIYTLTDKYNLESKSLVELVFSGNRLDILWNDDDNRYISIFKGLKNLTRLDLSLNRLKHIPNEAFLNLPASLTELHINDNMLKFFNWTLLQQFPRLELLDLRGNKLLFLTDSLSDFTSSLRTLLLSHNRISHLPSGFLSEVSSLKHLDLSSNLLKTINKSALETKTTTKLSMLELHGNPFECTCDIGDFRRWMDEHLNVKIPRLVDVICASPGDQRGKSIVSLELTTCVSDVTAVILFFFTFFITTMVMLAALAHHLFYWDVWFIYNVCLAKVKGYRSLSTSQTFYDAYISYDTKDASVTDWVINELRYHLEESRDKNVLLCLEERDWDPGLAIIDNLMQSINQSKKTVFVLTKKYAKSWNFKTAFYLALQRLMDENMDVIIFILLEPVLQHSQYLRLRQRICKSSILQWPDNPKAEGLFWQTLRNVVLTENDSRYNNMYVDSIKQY

IC50 [2] [nM]	SMILES	CC50 [1] [nM]	selectivity ratio [3]	further results
–	Nc1nccc(OCCOc2ccc3nc(SCc4ccccc4)n(Cc4ccco4)c(=O)c3c2)n1	1250	–	–
–	Nc1nccc(OCCCCOc2ccc3nc(SCc4ccccc4)n(Cc4ccco4)c(=O)c3c2)n1	> 10000	–	–
990	CN1CCN(CCCOc2ccc3nc(SCc4cccc(F)c4)n(Cc4ccco4)c(=O)c3c2)CC1	4220	> 4.26	–
–	COc1ccccc1CSc1nc2ccc(OCCCN3CCC(O)CC3)cc2c(=O)n1Cc1ccco1	> 10000	–	–
–	COc1ccccc1CSc1nc2ccc(OCCCN3CCN(C)CC3)cc2c(=O)n1Cc1ccco1	> 10000	–	–
–	Nc1nccc(OCCCOc2ccc3nc(SCc4cccc(F)c4)n(Cc4ccccc4)c(=O)c3c2)n1	> 10000	–	–
700	O=c1c2cc(OCCCN3CCC(O)CC3)ccc2nc(SCc2ccccc2)n1Cc1ccco1	> 10000	> 14.3	–
–	Nc1nccc(OCCCOc2ccc3nc(SCc4ccccc4)n(Cc4ccccc4)c(=O)c3c2)n1	> 10000	–	–
–	Nc1nccc(OCCCOc2ccc3nc(SCc4ccccc4)n(Cc4cccs4)c(=O)c3c2)n1	> 10000	–	–
–	CN1CCN(CCCOc2ccc3nc(SCc4ccc(F)cc4)n(Cc4ccco4)c(=O)c3c2)CC1	2900	–	–
–	Nc1nccc(OCCCOc2ccc3nc(SCc4ccc(F)cc4)n(Cc4ccccc4)c(=O)c3c2)n1	> 10000	–	–
870	O=c1c2cc(OCCCN3CCC(O)CC3)ccc2nc(SCc2cccc(F)c2)n1Cc1ccco1	1830	> 2.17	–
–	O=c1c2cc(OCCCN3CCC(O)CC3)ccc2nc(SCc2ccc(F)cc2)n1Cc1ccco1	> 10000	–	–
–	Nc1nccc(OCCCOc2ccc3nc(SCc4ccccc4)n(CC4CCCCC4)c(=O)c3c2)n1	> 10000	–	–
830	CCN(CC)CCOc1ccc2nc(SCc3ccccc3)n(Cc3cccs3)c(=O)c2c1	> 10000	22.9	–
630	CN1CCN(CCCOc2ccc3nc(SCc4ccccc4)n(Cc4ccco4)c(=O)c3c2)CC1	> 10000	> 15.9	–

SMILES	IC50 [2] [nM]	CC50 [1] [nM]	selectivity ratio [3]	further results
Nc1nccc(OCCCOc2ccc3nc(SCc4ccccc4)n(Cc4ccco4)c(=O)c3c2)n1	310	> 10000	> 32.2	selectivity ratio [4]: > 41.7; IC50 (Hepatitis B virus [5]): 240 nM; inhibition at 1 µM (Hepatitis B virus [5]): 75.3%; IC50 [6]: 210 nM; inhibition at 1 µM (Hepatitis B virus [7]): 79.3%
COc1ccccc1CSc1nc2ccc(OCCCOc3ccnc(N)n3)cc2c(=O)n1Cc1ccco1	150	> 10000	> 66.7	selectivity ratio [4]: > 100; IC50 (Hepatitis B virus [5]): 100 nM; inhibition at 1 µM (Hepatitis B virus [5]): 77.3%; IC50 [6]: 100 nM; inhibition at 1 µM (Hepatitis B virus [7]): 80.9%; Activity [8]: Dde
Nc1ccn([C@@H]2CS[C@H](CO)O2)c(=O)n1 [LAMIVUDINE]	< 100	> 100000	> 1000	IC50 [6]: > 100000 nM
